± gives the expanded uncertainty stated by the source.
Assays:
[1] = 298.15 K, Static calorimetry; for molar enthalpy of sublimation: Crystal
[2] = molar enthalpy of vaporization or sublimation; settings: 298.15 K; Crystal; Static calorimetry

Oc1ccc(F)c(F)c1 [3,4-Difluorophenol]
molar enthalpy of sublimation [1]: 17.4 ± 0.717 kcal/mol

Oc1ccc(F)cc1F [2,4-Difluorophenol]
molar enthalpy of vaporization ([1]; Liquid): 14.1 ± 0.43 kcal/mol

Oc1cc(F)ccc1F [2,5-Difluorophenol]
molar enthalpy [2]: 16.3 ± 0.669 kcal/mol

Oc1cccc(F)c1F [2,3-Difluorophenol]
molar enthalpy [2]: 16.3 ± 0.717 kcal/mol

Oc1cc(F)cc(F)c1 [3,5-Difluorophenol]
molar enthalpy of sublimation [1]: 17.4 ± 1.05 kcal/mol

Oc1c(F)cccc1F [2,6-difluorophenol]
molar enthalpy [2]: 18.6 ± 0.908 kcal/mol
